We go through 4 compounds from patent publication US9034303B2, “Neuroprotective and neuro-restorative iron chelators and monoamine oxidase inhibitors and uses thereof” (priority 2010, dated 2015).

Each structure is given as a SMILES string. “Also recorded” adds a separate entry of the source.

For data set [1] the following is noted: prior publications; cited from earlier work.
For data set [2], the system named is 6-OHDA-induced lesions of nigrostrial dopamine neurons. The conditions noted are these: prior publications; cited from earlier work.
Data set [3] is described as follows: Stability in aqueous solution (PBS or saline) followed by HPLC. The class given is physicochemical. The note with it: for Amount of compound remaining (%): 25° C., 0.5 mM. As to the method:
(§1) Using high pressure liquid chromatography (HPLC), the stability of each of the tested compounds was determined by following its respective chemical character over time in either phosphate buffered saline (PBS) and/or 0.85% saline solution (sodium chloride). In each case, 0.5 mM of the tested compound in PBS or saline solution was incubated at 25° C. or at 37° C. for 20 hours or, in some cases, up to two days (48 hours).

A short description of data set [4]: Follow-up stability experiment at 37° C. in PBS. The data set is classed as physicochemical. How it is done: as §1
In addition, in a follow-up experiment the instability of M30, and the stability of compounds 3, 7 and 8 was also confirmed at 37° C. in PBS, Table 2, below.

In a further data set the target is MAO-A (Mus musculus (Mouse), UniProt Q64133). The class given is in vivo, mice. The conditions noted are these: mice, single i.p. injection, small intestine, one hour later. As to the method:
(§2) For the MAO-inhibition study, mice (6 mice in each group) were injected intraperitoneally (i.p.) with compound 3 at the dosage of 5 or 10 mg/kg; or with M30 at the dosage of 10 mg/kg. Control mice received saline (0.1 mL) i.p. One hour later the mice were killed by cervical dislocation, while striatum and small intestine were removed rapidly and frozen in liquid nitrogen for further analysis. FIGS. 3 and 4 show MAO-A/MAO-B in vivo activity of compound 3 compared to the activity of M30. FIG. 3 presents an MAO inhibition in striatum, and FIG. 4 presents an MAO inhibition in intestine. The percent inhibition was computed based on comparison to control animals.

The target in the next data set is MAO-B (Mus musculus (Mouse), UniProt Q8BW75). Nature of the data set: In vivo MAO-B inhibition in mice after a single i.p. injection. The conditions noted are these: small intestine, one hour later. How it is done:
as §2

Data set [5] can be described thus: Cytotoxicity experiments conducted in the past with M30, A549. The class given is cell-based. The note with it: human, A549 cells, methods not identical, read-out: LC50 (μM) A549. The text has this:
(§3) Moreover, the outcomes of the cytotoxicity experiments compare very favorably with those conducted in the past with M30.

Data set [6] in a line: Cytotoxicity experiments conducted in the past with M30, HepG2. The note with it: human, HepG2 cells, methods not identical, read-out: LC50 (μM) HepG2. The class given is cell-based.
From the text: as §3

Data set [7] is described as follows: Cytotoxicity experiments conducted in the past with M30, SHSY-5Y. The data set is classed as cell-based, human. The conditions noted are these: human, SH-SY5Y cells; experiments conducted in the past, methods not identical; read-out: LC50 (μM) SHSY-5Y.
From the text: as §3

A further data set has as its system SHSY-5Y. The data set is described as above. The class given is cell-based, human. The conditions noted are these: past experiments.
From the text: as §3

Another data set in a line: in vitro. The note with it: human. How it is done: The cytotoxicity of compound 3 was assessed in vitro using two standard cell lines, HepG2, derived from a human hepatocellular carcinoma, and SH-SY5Y, derived from a human neuroblastoma, both in the presence and absence of excess iron.
HepG2 cells were maintained at ˜5% CO2, 37° C., and 95% relative humidity in minimal essential media (MEM) supplemented with 10% fetal bovine serum plus 0.1 mM non-essential amino acids, 2 mM L-glutamine, and penicillin/streptomycin. SH-SY5Y cells were maintained at ˜5% CO2, 37° C., and 95% relative humidity in a mixture of minimal essential media (MEM) and F12 K media (1:1, v:v) supplemented with 10% fetal bovine serum plus 0.1 mM non-essential amino acids, 2 mM L-glutamine, and penicillin/streptomycin. The cells were subcultured every two to three days and plated in tissue culture treated opaque white 96-well plates at a density of 1×10^4 cells/well and incubated at ˜5% CO2, 37° C., and 95% relative humidity overnight prior to initiation of the assay.
A series of DMSO stocks of the test article at 100× of the final concentration were diluted 1:100 with fresh culture media (final DMSO concentration was 1%). The media from the plated cells was removed and replaced with 100 μL of media containing test article or tamoxifen with final concentrations ranging between 0.01 to 1000 μM in triplicate. Wells containing no cells were used as background controls. Tamoxifen was used as a known positive control and DMSO alone was used as a vehicle control. The cells were incubated for four hours at ˜5% CO2, 37° C., and 95% relative humidity.
Cell viability was determined using a commercially available kit to determine ATP levels by luminescence. Briefly, the buffer and lyophilized substrate from the kit were equilibrated to room temperature. The buffer was used to reconstitute the substrate just prior to addition to the wells of the cell plate (100 μL per well). The plate was placed into the Tecan Infinite M200 plate reader, agitated for 10 minutes followed by a 10 minute wait period, then read using an integration time of 0.5 seconds with no attenuation.
The mean luminescence from the test article treated cells was compared to that treated by DMSO only.

MAO-B, sequence (Q8BW75 whole entry): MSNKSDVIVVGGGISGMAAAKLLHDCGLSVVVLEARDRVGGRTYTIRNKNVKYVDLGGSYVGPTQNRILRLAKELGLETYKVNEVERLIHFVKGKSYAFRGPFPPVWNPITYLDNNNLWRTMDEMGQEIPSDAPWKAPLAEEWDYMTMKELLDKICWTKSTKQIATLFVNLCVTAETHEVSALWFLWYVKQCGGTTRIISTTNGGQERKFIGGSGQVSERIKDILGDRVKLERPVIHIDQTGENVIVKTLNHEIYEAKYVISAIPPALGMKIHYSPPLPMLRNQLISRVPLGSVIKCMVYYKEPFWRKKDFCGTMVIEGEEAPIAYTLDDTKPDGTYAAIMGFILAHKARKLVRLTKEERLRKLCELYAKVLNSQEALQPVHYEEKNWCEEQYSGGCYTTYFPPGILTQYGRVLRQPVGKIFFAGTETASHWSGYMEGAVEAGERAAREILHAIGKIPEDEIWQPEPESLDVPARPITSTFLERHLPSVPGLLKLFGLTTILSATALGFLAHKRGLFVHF
MAO-A, sequence (Q64133 whole entry): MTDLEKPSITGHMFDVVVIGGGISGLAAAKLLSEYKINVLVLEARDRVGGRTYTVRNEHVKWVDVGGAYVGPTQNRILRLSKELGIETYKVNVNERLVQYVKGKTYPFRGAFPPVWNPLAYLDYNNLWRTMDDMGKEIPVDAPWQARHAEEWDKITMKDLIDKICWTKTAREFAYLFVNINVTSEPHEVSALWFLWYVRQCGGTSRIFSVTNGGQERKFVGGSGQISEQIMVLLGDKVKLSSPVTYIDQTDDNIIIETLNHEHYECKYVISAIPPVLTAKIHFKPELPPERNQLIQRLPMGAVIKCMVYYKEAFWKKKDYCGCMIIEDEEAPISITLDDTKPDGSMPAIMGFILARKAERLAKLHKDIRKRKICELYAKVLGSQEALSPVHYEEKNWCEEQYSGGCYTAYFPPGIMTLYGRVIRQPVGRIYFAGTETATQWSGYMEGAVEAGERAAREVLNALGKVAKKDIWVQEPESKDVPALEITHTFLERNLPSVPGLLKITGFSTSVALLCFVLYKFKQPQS

For the compound `OCCN1CCN(Cc2ccc(O)c3ncccc23)CC1` [5-[4-(2-hydroxyethyl)piperazin-1-ylmethyl]-8-hydroxyquinoline], the “Crossing of the BBB” value in data set [1] is listed as “able to cross the BBB”. For the same compound, the “Activity against 6-OHDA in an animal model of Parkinson's disease” value (from here on “Activity against 6-OHDA”) in data set [2] is “active against 6-hydroxydopamine (6-OHDA)”.
As to `C#CCN(C)Cc1ccc(O)c2ncccc12` [Compound M30, 5-[(methyl-2-propyn-1-ylamino)methyl]-8-quinolinol, reference compound], in data set [3] (PBS and/or saline solution), the “Stability in aqueous solution (in words)” value was “unstable in aqueous solution; also recorded: degraded in both PBS and saline solution”. Further, the “Amount of compound remaining (%)” value was 76% in data set [3] (PBS, 0.5 hours); 57% in [3] (PBS, 2 hours); 28% in [3] (PBS, 20 hours); 15% in data set [3] (PBS, 48 hours); 98% in data set [3] (saline, 0.5 hours); 85% in data set [3] (saline, 2 hours). Besides, the “Amount of compound remaining (%)” value in data set [3] (saline, 20 hours) is recorded as 22%; in data set [4] (0.5 hours) it was 50.8%; in [4] (1 hour) it was 54.9%; in data set [4] (2 hours), 45.1%; in data set [4] (4 hours) it was 24.3%; in data set [4] (8 hours), 14.4%. For the same compound, the “Amount of compound remaining (%)” value in data set [4] (24 hours) turned out to be 4.26%. Besides, in [4], the “Stability at 37° C. in PBS (in words)” value is “instability”. Besides, on MAO-A, the “MAO-A inhibition in intestine” value was “Reduced inhibition in the intestinal tissue versus striatal tissue”. Moreover, the “MAO-B inhibition in intestine” value on MAO-B is recorded as “Reduced inhibition in the intestinal tissue versus striatal tissue”. The CC50 in [5] is more than 1000 µM; in data set [6] it was 842 µM; in [7] it was more than 1000 µM. Besides, the “SHSY-5Y cell death (%)” value in the data set on SHSY-5Y (with iron, M30 1 μM) is 0.69%; in the data set with SHSY-5Y (with iron, M30 10 μM) it was 78.6%; in the data set on SHSY-5Y (with iron, M30 100 μM), 38.5%; in the data set on SHSY-5Y (without iron, M30 1 μM), −2. %; in the data set on SHSY-5Y (without iron, M30 10 μM), 1.0%; in the data set with SHSY-5Y (without iron, M30 100 μM), 19. %. Moreover, the “Crossing of the BBB” value in data set [1] was “able to cross the BBB”. Also, the “Activity against 6-OHDA” value in data set [2] is given as “active against 6-hydroxydopamine (6-OHDA)”.
With `CC(=O)N(O)CCCCCNC(=O)CCC(=O)N(O)CCCCCNC(=O)CCC(=O)N(O)CCCCCN` [Desferal], in [1], the “Crossing of the BBB” value is listed as “does not cross the BBB”. For the same compound, the “Activity against 6-OHDA” value in [2] is listed as “protected the rats against 6-OHDA-induced lesions”.
Take `CC/C(=C(\c1ccccc1)c1ccc(OCCN(C)C)cc1)c1ccccc1` [tamoxifen, reference compound]: the CC50 at 4 h in the data set “in vitro” and in “in vitro” (LC50 (μM) SHSY-5Y) was approximately 50 µM throughout.
